In PubChem BioAssay AID248 (DTP/NCI, 2004):
“And” between values parts separate entries of the source, which are not always exact repeats. Equal entries are not always repeated. Inconclusive results and toxic doses are left out. No stated cut-off is given here; in the data, active means T/C of 150% or more; inactive means T/C below 125%.

System: L1210 leukemia ip in BDF1 mice, survival T/C
Test: NCI In Vivo Anticancer Drug Screen. Data for tumor model L1210 Leukemia (intraperitoneal) in B6D2F1 (BDF1) mice
Conditions: endpoint: mean survival time, higher = longer survival
Procedure, shortened: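 Antitumor effect is assessed in tumor-bearing animals. Survival in the compound arm is compared with a vehicle-dosed control arm and expressed as their quotient.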

[1] = dose: 50.0 mg/kg/injection, schedule: Q01DX001 (ip), vehicle: saline
[2] = dose: 50.0 mg/kg/injection, schedule: Q01DX009 (ip), vehicle: saline
[3] = dose: 100.0 mg/kg/injection, schedule: Q01DX001 (ip), vehicle: saline
[4] = dose: 100.0 mg/kg/injection, schedule: Q01DX009 (ip), vehicle: Klucel (hydroxypropylcellulose) (HPC)
[5] = dose: 100.0 mg/kg/injection, schedule: Q01DX009 (ip), vehicle: saline
[6] = dose: 100.0 mg/kg/injection, schedule: Q04DX003 (ip), vehicle: Klucel (hydroxypropylcellulose) (HPC)
[7] = dose: 200.0 mg/kg/injection, schedule: Q01DX001 (ip), vehicle: saline
[8] = dose: 200.0 mg/kg/injection, schedule: Q01DX009 (ip), vehicle: Klucel (hydroxypropylcellulose) (HPC)
[9] = dose: 200.0 mg/kg/injection, schedule: Q01DX009 (ip), vehicle: saline
[10] = dose: 200.0 mg/kg/injection, schedule: Q04DX003 (ip), vehicle: Klucel (hydroxypropylcellulose) (HPC)
[11] = dose: 400.0 mg/kg/injection, schedule: Q01DX001 (ip), vehicle: saline
[12] = dose: 400.0 mg/kg/injection, schedule: Q01DX009 (ip), vehicle: Klucel (hydroxypropylcellulose) (HPC)
[13] = dose: 400.0 mg/kg/injection, schedule: Q04DX003 (ip), vehicle: Klucel (hydroxypropylcellulose) (HPC)
[14] = dose: 100.0 mg/kg/injection, schedule: Q01DX009 (ip), vehicle: saline with Tween-80
[15] = dose: 200.0 mg/kg/injection, schedule: Q01DX009 (ip), vehicle: saline with Tween-80

Measured: T/C

CN(C)c1ccc(/C=C\C(=O)c2ccccc2)cc1
inactive: [1] 96 % of control | [2] 94 % of control | [3] 102 % of control | [4] 95 % of control | [5] 102 % of control | [6] 94 % of control | [7] 111 % of control | [8] 95 % of control | [9] 97 % of control | [10] 93 % of control | [11] 94 % of control | [12] 97 % of control | [13] 94 % of control

CCCCOP(=O)(Cc1ccc(Cl)cc1Cl)OCCCC
inactive: dose: 100.0 mg/kg/injection, schedule: Q04DX002 (ip), vehicle: saline with Tween-80 109 % of control | dose: 200.0 mg/kg/injection, schedule: Q04DX002 (ip), vehicle: saline with Tween-80 109 % of control | dose: 400.0 mg/kg/injection, schedule: Q04DX002 (ip), vehicle: saline with Tween-80 98 % of control

Cc1cc(S(=O)(=O)c2ccccc2)c(C)s1
inactive: [2] 91 % of control | dose: 50.0 mg/kg/injection, schedule: Q04DX003 (ip), vehicle: acetone 96 % of control | [3] 98 % of control | [5] 89 % of control | dose: 100.0 mg/kg/injection, schedule: Q04DX003 (ip), vehicle: acetone 96 % of control | [7] 101 % of control | [9] 94 % of control | dose: 200.0 mg/kg/injection, schedule: Q04DX003 (ip), vehicle: acetone 94 % of control

c1ccc(CC2(Cc3ccccc3)SCCS2)cc1
inactive: [6] 102 % of control | [10] 91 % of control | [13] 89 % of control

CN(C)c1ccc(C=C(C#N)C#N)cc1
inactive: [4] 100 % of control | [6] 96 % of control and 98 % of control | [8] 105 % of control | [10] 97 % of control and 102 % of control | [12] 94 % of control | [13] 93 % of control and 92 % of control

O=C(N/C=C/NC(=O)Oc1c(I)cc(I)cc1I)Oc1c(I)cc(I)cc1I
inactive: [4] 92 % of control | [8] 100 % of control | [12] 102 % of control

S=C(N/N=C1\C=Cc2ccccc2C1)N/N=C1\C=Cc2ccccc2C1
inactive: [3] 92 % of control | [7] 95 % of control | [11] 95 % of control

c1ccc(C2=Nc3ccccc3C(c3ccccc3)=Nc3ccccc32)cc1
inactive: [14] 89 % of control | [15] 97 % of control | dose: 400.0 mg/kg/injection, schedule: Q01DX009 (ip), vehicle: saline with Tween-80 89 % of control

Nc1ccc2cc3ccccc3cc2c1
inactive: dose: 12.5 mg/kg/injection, schedule: Q01DX015 (ip), vehicle: saline 104 % of control | dose: 25.0 mg/kg/injection, schedule: Q01DX015 (ip), vehicle: saline 95 % of control | dose: 50.0 mg/kg/injection, schedule: Q01DX015 (ip), vehicle: saline 95 % of control | dose: 100.0 mg/kg/injection, schedule: Q01DX015 (ip), vehicle: saline 97 % of control

CC(C)CC(CC(C)C)NCCOC(=O)c1ccc(N)cc1
inactive: dose: 75.0 mg/kg/injection, schedule: Q01DX001 (ip), vehicle: other 106 % of control | dose: 150.0 mg/kg/injection, schedule: Q01DX001 (ip), vehicle: other 103 % of control

O=C(Cl)C1C2C=CC(C2)C1C(=O)Cl (stereo not drawn)
inactive: [1] 108 % of control | [3] 97 % of control

COc1ccc2c3c(ccc2c1)NC(C(=O)O)CC3 (stereo not drawn)
inactive: [4] 97 % of control | [8] 96 % of control | [12] 96 % of control

O=C(NC(=O)c1ccc([N+](=O)[O-])cc1)OCCCl
inactive: dose: 100.0 mg/kg/injection, schedule: Q01DX001 (ip), vehicle: Klucel (hydroxypropylcellulose) (HPC) 92 % of control | dose: 200.0 mg/kg/injection, schedule: Q01DX001 (ip), vehicle: Klucel (hydroxypropylcellulose) (HPC) 97 % of control | dose: 400.0 mg/kg/injection, schedule: Q01DX001 (ip), vehicle: Klucel (hydroxypropylcellulose) (HPC) 105 % of control

O=C1C(OCc2ccccc2)=C(OCc2ccccc2)C(=O)c2ccccc21
inactive: dose: 75.0 mg/kg/injection, schedule: Q01DX001 (ip), vehicle: acetone 91 % of control | dose: 150.0 mg/kg/injection, schedule: Q01DX001 (ip), vehicle: acetone 94 % of control | dose: 300.0 mg/kg/injection, schedule: Q01DX001 (ip), vehicle: acetone 90 % of control

C[n+]1cc2ccccc2c2ccccc21
inactive: dose: 6.25 mg/kg/injection, schedule: Q01DX009 (ip), vehicle: water 104 % of control | dose: 12.5 mg/kg/injection, schedule: Q01DX009 (ip), vehicle: saline 92 % of control | dose: 12.5 mg/kg/injection, schedule: Q01DX009 (ip), vehicle: water 120 % of control | dose: 12.5 mg/kg/injection, schedule: Q04DX003 (ip), vehicle: saline 101 % of control | dose: 12.5 mg/kg/injection, schedule: Q04DX003 (ip), vehicle: water 98 % of control | dose: 25.0 mg/kg/injection, schedule: Q01DX009 (ip), vehicle: saline 112 % of control | dose: 25.0 mg/kg/injection, schedule: Q01DX009 (ip), vehicle: water 115 % of control | dose: 25.0 mg/kg/injection, schedule: Q04DX003 (ip), vehicle: saline 107 % of control | dose: 25.0 mg/kg/injection, schedule: Q04DX003 (ip), vehicle: water 107 % of control | [2] 95 % of control | dose: 50.0 mg/kg/injection, schedule: Q01DX009 (ip), vehicle: water 93 % of control | dose: 50.0 mg/kg/injection, schedule: Q04DX003 (ip), vehicle: saline 107 % of control

C=CC(C)(O)CCC1C(=C)CCC2C(C)(C)CCCC12C (stereo not drawn)
inactive: [4] 100 % of control | [8] 100 % of control | [12] 95 % of control

CCc1ncc(N2C3CCCC2CC(=O)C3)[nH]1
inactive: dose: 75.0 mg/kg/injection, schedule: Q01DX001 (ip), vehicle: saline 98 % of control | dose: 150.0 mg/kg/injection, schedule: Q01DX001 (ip), vehicle: saline 98 % of control

Ic1cccc(Oc2ccccc2)c1
inactive: [14] 114 % of control | [15] 91 % of control

CC(C)(C)c1ccc(SCN(CSc2ccc(C(C)(C)C)cc2)Cc2ccccc2)cc1
inactive: dose: 100.0 mg/kg/injection, schedule: Q01DX001 (ip), vehicle: other 105 % of control | dose: 200.0 mg/kg/injection, schedule: Q01DX001 (ip), vehicle: other 100 % of control | dose: 400.0 mg/kg/injection, schedule: Q01DX001 (ip), vehicle: other 94 % of control

Cc1ccc2c(ccc3ccc4ccccc4c32)c1
inactive: [6] 90 % of control | [10] 89 % of control | [13] 93 % of control

CC1CC(=O)Nc2ccccc2N1 (stereo not drawn)
inactive: [6] 97 % of control | [10] 100 % of control | [13] 103 % of control

NS(=O)(=O)O
inactive: dose: 12.5 mg/kg/injection, schedule: Q01DX009 (ip), vehicle: saline with Tween-80 103 % of control | dose: 25.0 mg/kg/injection, schedule: Q01DX009 (ip), vehicle: saline with Tween-80 95 % of control | dose: 50.0 mg/kg/injection, schedule: Q01DX009 (ip), vehicle: saline with Tween-80 89 % of control

Cc1ncn[nH]1
inactive: dose: 100.0 mg/kg/injection, schedule: Q04DX002 (ip), vehicle: saline 96 % of control | dose: 200.0 mg/kg/injection, schedule: Q04DX002 (ip), vehicle: saline 100 % of control | dose: 400.0 mg/kg/injection, schedule: Q04DX002 (ip), vehicle: saline 89 % of control
